The NIST ThermoML archive (doi:10.1021/je700260f)

Conditions: 303.15 K, Liquid, Vibrating tube method

FC(C(F)(F)F)C(F)(F)F [1,1,1,2,3,3,3-heptafluoropropane]
Conditions	mass density [kg/m3]
8067 kPa	1421.1
8093 kPa	1421.3
8123 kPa	1421.4
8152 kPa	1421.5
8181 kPa	1421.9
8211 kPa	1422
8250 kPa	1422.2
8280 kPa	1422.3
8306 kPa	1422.5
8340 kPa	1422.8
8378 kPa	1423
8411 kPa	1423.1
8436 kPa	1423.4
8471 kPa	1423.6
8496 kPa	1423.6
8526 kPa	1423.9
8556 kPa	1423.9
8581 kPa	1424.3
8610 kPa	1424.4
8640 kPa	1424.4
8671 kPa	1424.6
8697 kPa	1424.8
8726 kPa	1425
8752 kPa	1425.2
8778 kPa	1425.4
8808 kPa	1425.5
8847 kPa	1425.8
8873 kPa	1425.9
8908 kPa	1426.2
8947 kPa	1426.2
8978 kPa	1426.5
9004 kPa	1426.6
9031 kPa	1426.8
9066 kPa	1426.9
9263 kPa	1428.1
9299 kPa	1428.3
9334 kPa	1428.5
9370 kPa	1428.6
9401 kPa	1428.9
9445 kPa	1429.1
9480 kPa	1429.3
9502 kPa	1429.4
9533 kPa	1429.7
9567 kPa	1429.9
9598 kPa	1429.9
9634 kPa	1430.2
9661 kPa	1430.3
9693 kPa	1430.5
9720 kPa	1430.6
9747 kPa	1430.8
9779 kPa	1431.1
9806 kPa	1431.2
9833 kPa	1431.3
9878 kPa	1431.5
9906 kPa	1431.7
9938 kPa	1431.8
9969 kPa	1432.1
9996 kPa	1432.3
10037 kPa	1432.6
10069 kPa	1432.6
10110 kPa	1432.8
10137 kPa	1433
10174 kPa	1433.2
10201 kPa	1433.4
10228 kPa	1433.5
10255 kPa	1433.7
10278 kPa	1433.7
10311 kPa	1434
10343 kPa	1434
10379 kPa	1434.3
10406 kPa	1434.4
10434 kPa	1434.6
10466 kPa	1434.8
10494 kPa	1434.9
10531 kPa	1435.1
10559 kPa	1435.3
10596 kPa	1435.4
10629 kPa	1435.8
10662 kPa	1436
10695 kPa	1436
10725 kPa	1436.2
10753 kPa	1436.4
10791 kPa	1436.6
10824 kPa	1436.9
10960 kPa	1437.4
11032 kPa	1437.7
11066 kPa	1438
11105 kPa	1438.2
11143 kPa	1438.4
11183 kPa	1438.6
11218 kPa	1438.8
11258 kPa	1439.1
11297 kPa	1439.2
11332 kPa	1439.3
11372 kPa	1439.7
11402 kPa	1439.8
11442 kPa	1439.8
11473 kPa	1440.1
11525 kPa	1440.4
11555 kPa	1440.6
11599 kPa	1440.8
11633 kPa	1441
11668 kPa	1441.2
11703 kPa	1441.2
11734 kPa	1441.6
11770 kPa	1441.7
11800 kPa	1442
11840 kPa	1442.2
11875 kPa	1442.2
11915 kPa	1442.5
11952 kPa	1442.7
11987 kPa	1442.8
12022 kPa	1443
12052 kPa	1443.3
12404 kPa	1444.9
12445 kPa	1445.1
12481 kPa	1445.4
12527 kPa	1445.6
12558 kPa	1445.7
12595 kPa	1446
12631 kPa	1446.1
12681 kPa	1446.4
12722 kPa	1446.5
12752 kPa	1446.7
12793 kPa	1447
12830 kPa	1447.2
12877 kPa	1447.5
12924 kPa	1447.5
12965 kPa	1447.8
12995 kPa	1447.8
13030 kPa	1448.2
13077 kPa	1448.3
13108 kPa	1448.5
13150 kPa	1448.8
13186 kPa	1448.9
13229 kPa	1449.2
13275 kPa	1449.4
13317 kPa	1449.6
13364 kPa	1449.7
13400 kPa	1449.9
13432 kPa	1450.1
13468 kPa	1450.3
13516 kPa	1450.6
13547 kPa	1450.6
13593 kPa	1450.8
13620 kPa	1451.1
13652 kPa	1451.1
13689 kPa	1451.3
13730 kPa	1451.6
13762 kPa	1451.7
13794 kPa	1451.9
13826 kPa	1452
13867 kPa	1452.1
13900 kPa	1452.4
13937 kPa	1452.6
13966 kPa	1452.7
14003 kPa	1452.9
14032 kPa	1453.1
14069 kPa	1453.3
14113 kPa	1453.4
14146 kPa	1453.5
14189 kPa	1453.8
14223 kPa	1454.1
14261 kPa	1454.1
14289 kPa	1454.2
14322 kPa	1454.4
14355 kPa	1454.7
14388 kPa	1454.9
14416 kPa	1455
14450 kPa	1455
14493 kPa	1455
14521 kPa	1455.4
14555 kPa	1455.5
14875 kPa	1457.1
14909 kPa	1457.2
14938 kPa	1457.4
14981 kPa	1457.7
15024 kPa	1457.9
15062 kPa	1457.8
15091 kPa	1458
15121 kPa	1458.3
15159 kPa	1458.3
15193 kPa	1458.5
15222 kPa	1458.7
15252 kPa	1458.8
15283 kPa	1459
15317 kPa	1459.2
15351 kPa	1459.2
15389 kPa	1459.5
15422 kPa	1459.6
15461 kPa	1459.8
15500 kPa	1459.9
15540 kPa	1460.2
15578 kPa	1460.3
15623 kPa	1460.4
15662 kPa	1460.6
15692 kPa	1460.8
15721 kPa	1461.1
15751 kPa	1461.1
15780 kPa	1461.1
15805 kPa	1461.3
15840 kPa	1461.4
15879 kPa	1461.7
15914 kPa	1461.8
15948 kPa	1462
